Experimental data: patent publication US20040049072A1, “RXR modulators with improved pharmacologic profile” (priority 1999, published 2004)
Entries after “also recorded” stand apart in the source; their conditions may differ. Read-outs that look alike come from different tables or passages of the source.

What was measured:
[1] = target: T1, RXRα:PPARγ heterodimer (Homo sapiens, UniProt P19793); test: RXR:PPARγ heterodimer co-transfection assay in CV-1 cells; format: cell-based
T1 construct: expressed in transfected cells; host or cells: CV-1 cells
T1 sequence (P19793 1-462): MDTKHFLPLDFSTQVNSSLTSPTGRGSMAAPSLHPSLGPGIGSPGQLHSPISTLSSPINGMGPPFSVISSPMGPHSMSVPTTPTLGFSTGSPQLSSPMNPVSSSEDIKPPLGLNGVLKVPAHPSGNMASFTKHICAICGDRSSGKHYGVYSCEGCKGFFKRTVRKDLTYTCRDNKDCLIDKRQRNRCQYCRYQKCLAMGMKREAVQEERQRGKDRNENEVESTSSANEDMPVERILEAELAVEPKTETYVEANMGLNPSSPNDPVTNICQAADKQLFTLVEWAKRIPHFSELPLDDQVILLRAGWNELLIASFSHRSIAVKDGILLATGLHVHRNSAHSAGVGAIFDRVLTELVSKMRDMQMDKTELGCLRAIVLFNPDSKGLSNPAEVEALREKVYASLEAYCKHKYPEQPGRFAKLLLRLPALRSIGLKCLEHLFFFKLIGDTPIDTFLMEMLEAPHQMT
T1 sequence (P37231 1-505 partner): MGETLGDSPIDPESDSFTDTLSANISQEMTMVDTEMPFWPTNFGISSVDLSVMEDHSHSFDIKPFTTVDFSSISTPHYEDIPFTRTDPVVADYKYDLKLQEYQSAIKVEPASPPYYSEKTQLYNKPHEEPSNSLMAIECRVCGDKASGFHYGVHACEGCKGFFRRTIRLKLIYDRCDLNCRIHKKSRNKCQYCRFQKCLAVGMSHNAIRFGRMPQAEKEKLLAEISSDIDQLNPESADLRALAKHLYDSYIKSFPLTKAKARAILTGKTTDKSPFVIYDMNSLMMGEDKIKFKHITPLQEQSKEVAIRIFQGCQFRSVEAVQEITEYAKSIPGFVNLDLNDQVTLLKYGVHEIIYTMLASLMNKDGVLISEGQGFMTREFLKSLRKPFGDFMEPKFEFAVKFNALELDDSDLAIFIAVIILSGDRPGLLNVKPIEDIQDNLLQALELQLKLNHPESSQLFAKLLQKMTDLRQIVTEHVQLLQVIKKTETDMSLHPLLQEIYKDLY
Procedure: (§1) For determination of agonist activity in the context of the RXR:RAR heterodimer or the RXR:PPARγ heterodimer, media containing compounds of the present invention in concentrations ranging from 10^−10 to 10^−5 M were added to the cells.
(§2) Compounds of the present invention were also tested for the ability to synergize with a PPARγ agonist in the context of an RXR heterodimer. […] Efficacy of the compounds of the present invention in the agonist and synergy assays was calculated as the maximum response obtained over the range of the dose response curve relative to the maximum response obtained by the reference agonist. Antagonist efficacy was determined as a function (%) of maximal inhibition.
To examine the effects of the compounds of the present invention on the transcriptional properties of the RXR:PPARγ, a heterodimer cotransfection assay as described above was employed.

[2] = system: db/db mouse; test: db/db mouse study (rodent model of Type II diabetes); settings: for insulin sensitizing activity with thyroid axis suppression and triglyceride elevations: rodent models of Type II Diabetes; for inhibition in vivo at 30 mg/kg: Mus musculus, po, 168 h, read-out: db/db mouse Glu. (D7); for db/db mouse Trigs. (D3): plasma triglycerides as % of control values, day 3, 30 mg/kg/day
Procedure: Mice (obtained from Jackson Laboratory), ZDF rats (obtained from Genetic Models Inc.) and fa/fa rats (obtained from either Charles River, or Harlan) were maintained on 12-hour light/dark cycle. […] Compounds were administered at the specified doses by oral gavage on the morning of each day of any experiment. Blood samples were obtained 3 hours after dosing from fed animals under anesthesia and collected into heparinized capillary tubes from the tail vein.

[3] = target: T2, RXRα (Homo sapiens, UniProt P19793); test: RXRα binding (competition with tritiated LGD1069)
T2 sequence (P19793 1-462): T1 sequence (P19793 1-462)
Procedure: Non-specific binding was defined as that binding remaining in the presence of 500 nM of the appropriate unlabelled compound. At the end of the incubation period, bound ligand was separated from free. The amount of bound tritiated retinoid was determined by liquid scintillation counting of an aliquot (700 μL) of the supernatant fluid or the hydroxylapatite pellet.
After correcting for non-specific binding, IC50 values were determined. […] The IC50 value was determined graphically from a log-logit plot of the data. The Ki values were determined by application of the Cheng-Prussof equation to the IC50 values, the labeled ligand concentration and the Kd of the labeled ligand.

[4] = target: T3, RXRα:RAR heterodimer (Homo sapiens, UniProt P19793); test: RXR:RAR heterodimer co-transfection assay in CV-1 cells; format: cell-based
T3 construct: expressed in transfected cells; host or cells: CV-1 cells
T3 sequence (P19793 1-462): T1 sequence (P19793 1-462)
Procedure: as §1, §2
However, when RAR is occupied, typical RXR agonists activate the heterodimer. […] To examine the effects of the compounds of the present invention on the transcriptional properties of the RXR:RAR heterodimer, a heterodimer cotransfection assay as described above was employed.

[5] = target: T4, RXRα homodimer (RXR:RXR) (Homo sapiens, UniProt P19793); test: RXR homodimer co-transfection assay in CV-1 cells; format: cell-based; settings: CV-1, read-out: RXR:RAR CV-1 (%) Ag.
T4 sequence (P19793 1-462): T1 sequence (P19793 1-462)
Text: In the co-transfection assay, cloned cDNA for one or more IRs (e.g., human RARα, RXRα, or PPARγ), alone or in combination (i.e. for heterodimer assays) under the control of a constitutive promoter (e.g., the SV 40, RSV or CMV promoter) is introduced by transfection (a procedure to introduce exogenous genes into cells) into a background cell substantially devoid of endogenous IRs. These introduced gene(s) direct the recipient cells to make the IR protein(s) of interest. A further gene is also introduced (co-transfected) into the same cells in conjunction with the IR gene(s). This further gene, comprising the cDNA for a reporter protein, such as firefly luciferase (LUC), controlled by an appropriate hormone responsive promoter containing a hormone response element (HRE). This reporter plasmid functions as a reporter for the transcriptional-modulating activity of the target IR(s). Thus, the reporter acts as a surrogate for the products (mRNA then protein) normally expressed by a gene under control of the target receptor(s) and their native hormone(s).
Exposing the transfected cells to an agonist ligand compound increases reporter activity in the transfected cells. This activity can be conveniently measured, e.g., by increasing luciferase production and enzymatic activity, which reflects compound-dependent, IR-mediated increases in reporter transcription. […] Increasing concentrations of an antagonist will decrease the reporter signal (e.g., luciferase production). The co-transfection assay is therefore useful to detect both agonists and antagonists of specific IRs. Furthermore, it determines not only whether a compound interacts with a particular IR, but whether this interaction mimics (agonizes) or blocks (antagonizes) the effects of native or synthetic regulatory molecules on target gene expression, as well as the specificity and strength of this interaction.
The receptor expression plasmid was cotransfected along with a reporter plasmid at 50 ng/well, the internal control plasmid pRS-β-Gal at 50 ng/well and filler DNA, pGEM, at 90 ng/well.
Six hours after transfection, media was removed and the cells were washed with phosphate-buffered saline (PBS). Media containing compounds of the present invention in concentrations ranging from 10^−10 to 10^−5 M were added to the cells. […] Retinoids were dissolved in dimethylsulfoxide for use in the transcriptional activation assays. Two to three replicates were used for each sample. Transfections and subsequent procedures were performed on a Biomek 1000 automated workstation.
After 40 hours, the cells were washed with PBS, lysed with a detergent-based buffer and assayed for LUC and β-Gal activities using a luminometer or spectrophotometer, respectively. For each replicate, the normalized response (NR) was calculated as: […]
The mean and standard error of the mean (SEM) of the NR were calculated. Data were plotted as the response of the compound compared to the reference compounds over the range of the dose-response curve. […] Antagonist activity was determined by testing the amount of LUC expression in the presence of the RXR agonists described above at the EC50 concentration for such known compounds. […] In addition, the efficacy of antagonists was determined as a function (%) of maximal inhibition.

[6] = Table 2, from IC50 by Cheng-Prussof equation, tritiated LGD1069, read-out: Bind RXRα Ki
[7] = CV-1, read-out: RXR:RAR CV-1 (%) Ag.
[8] = Table 2, maximal response in presence of 100 nM BRL49653 relative to BRL49653 alone

Structure (SMILES) | insulin sensitizing activity with thyroid axis suppression and triglyceride elevations [2] | inhibition in vivo at 30 mg/kg [2] [%] | db/db mouse Trigs. (D3) [2] [%] | Ki [3, 6] [nM] | Emax [4, 7] [%] | Emax [5] [%] | other results
CN(CCOc1ccc(CC2SC(=O)NC2=O)cc1)c1ccccn1 (centres unmarked) [BRL 49653, reference compound] | – | – | – | – | – | – | RXRα:PPARγ Heterodimer Cotransfection Assay Agonist Efficacy (%) ([1]; maximal response relative to response of BRL 49653): 100%
CCCCCOc1c(\C(C)=C/C=C/C(C)=C/C(=O)O)cc(C(C)C)cc1C(C)C [Compound L7] | maintain the desirable insulin sensitizing activity and eliminate or reduce both the suppression of the thyroid axis and triglyceride elevations; also recorded: maintain the desirable insulin sensitizing activity and minimize both the suppression of the thyroid axis and triglyceride elevations | – | – | – | – | – | –
CCCOc1c(C2=C(/C=C/C(C)=C/C(=O)O)CCC2)cc(C(C)C)cc1C(C)C [Compound L8] | maintain the desirable insulin sensitizing activity and minimize both the suppression of the thyroid axis and triglyceride elevations | – | – | – | – | – | –
CCCCOc1c(C2=C(/C=C/C(C)=C/C(=O)O)CCC2)cc(C(C)C)cc1C(C)C [Compound L9] | maintain the desirable insulin sensitizing activity and minimize both the suppression of the thyroid axis and triglyceride elevations | – | – | – | – | – | –
C/C(=C/C=C/C(C)=C/C(=O)O)c1cc(C(C)(C)C)cc(C(C)(C)C)c1OCC(F)F [Compound L13] | maintain the desirable insulin sensitizing activity and minimize both the suppression of the thyroid axis and triglyceride elevations | 54 | 109 | – | – | – | –
CCOc1c(\C(C)=C/C=C/C(C)=C/C(=O)O)cc(C(F)(F)C(F)(F)F)cc1C(C)C [Compound L15] | maintain the desirable insulin sensitizing activity and minimize both the suppression of the thyroid axis and triglyceride elevations | 80 | 156 | 6 | 1 | 44 | PPARγ CV-1 (%) Synergy [1]: 99%
CCc1cc(-c2ccsc2/C=C/C(C)=C/C(=O)O)c(OCCCC(F)(F)F)c(C(C)(C)C)c1 [Compound L16] | maintain the desirable insulin sensitizing activity and minimize both the suppression of the thyroid axis and triglyceride elevations | 37 | 79 | – | 2 | 1 | Ki [3]: 2 nM; PPARγ CV-1 (%) Synergy [1, 8]: 64%
CCc1cc(-c2ccsc2/C=C/C(C)=C/C(=O)O)c(OCCCF)c(C2CCCC2)c1 [Compound L17] | maintain the desirable insulin sensitizing activity and minimize both the suppression of the thyroid axis and triglyceride elevations | 29 | 75 | – | 4 | 3 | Ki [3]: 8 nM; PPARγ CV-1 (%) Synergy [1, 8]: 88%
CCC(C)(C)c1cc(\C(C)=C/C=C/C(C)=C/C(=O)O)c(OCC(F)F)c(C(C)(C)CC)c1 [Compound L18] | maintain the desirable insulin sensitizing activity and minimize both the suppression of the thyroid axis and triglyceride elevations | 45 | 134 | 29 | 1 | 2 | PPARγ CV-1 (%) Synergy [1, 8]: 69%
C/C(=C/C=C/C(C)=C/C(=O)O)c1cc(-c2ccccc2F)cc(C(C)C)c1OCC(F)F [Compound L19] | maintain the desirable insulin sensitizing activity and minimize both the suppression of the thyroid axis and triglyceride elevations | 68 | 187 | 1 | 2 | 3 | PPARγ CV-1 (%) Synergy [1]: 47%
C/C(=C/C=C/C(C)=C/C(=O)O)c1cc(C(C)(C)C)cc(C(C)(C)C)c1OCC(F)(F)F [Compound L23] | – | 53 | – | 27 | 7 | 1 | –
C/C(=C\c1ccc(C(=O)O)cc1)c1ccc2c(c1)C(C)(C)CCC2(C)C [TTNPB, (E)-4-[2-(5,6,7,8-tetrahydro-5,5,8,8-tetramethyl-2-naphthalenyl)-1-propenyl]benzoic acid, reference compound] | – | – | – | – | – | – | Emax ([4]; CV-1, read-out: RXRα:RAR Heterodimer Cotransfection Assay Agonist Efficacy (%)): 115%; agonist activity on the RXR:RAR heterodimer ([4]; compound alone): strongly transactivate
CN(C)C(=N)N=C(N)N [metformin, reference compound] | – | – | – | – | – | – | efficacy over 3 subsequent weeks ([2]; 7 week old db/db mice, 300 mg/kg daily oral gavage): decreases; plasma glucose ([2]; 7 week old db/db mice, 300 mg/kg daily oral gavage, maximum effect after first week): lowers plasma glucose
